Target: IDO1 (Homo sapiens, UniProt P14902)
Assay: IDO1 Cellular Assay in HeLa Cells Stimulated with IFNγ
Type: cell-based
Conditions: read-out: HeLa Cell Potency, IC50

IDO1, sequence (P14902 whole entry): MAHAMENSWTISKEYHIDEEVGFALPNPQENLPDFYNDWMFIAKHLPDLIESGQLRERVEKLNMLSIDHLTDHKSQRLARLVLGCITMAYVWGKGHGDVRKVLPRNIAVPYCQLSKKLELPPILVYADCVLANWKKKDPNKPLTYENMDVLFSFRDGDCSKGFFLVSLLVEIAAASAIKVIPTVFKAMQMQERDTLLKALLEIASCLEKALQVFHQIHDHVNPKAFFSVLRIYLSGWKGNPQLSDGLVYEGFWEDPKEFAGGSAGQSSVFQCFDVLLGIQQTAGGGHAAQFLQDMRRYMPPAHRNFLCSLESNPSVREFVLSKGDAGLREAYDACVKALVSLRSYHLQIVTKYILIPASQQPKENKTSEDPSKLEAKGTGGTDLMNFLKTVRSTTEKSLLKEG

Row | Structure (SMILES) | IC50 [nM]
1 | Cc1c(Cl)cccc1N1CCN(C(=O)Cn2nc(C(=O)N3CCC(O)(CF)CC3)c3c2CCCC3)CC1 [Example 407, 1-(4-(3-chloro-2-methylphenyl)piperazin-1-yl)-2-(3-(4-(fluoromethyl)-4-hydroxypiperidine-1-carbonyl)-4,5,6,7-tetrahydro-1H-indazol-1-yl)ethanone] | 1.09
2 | Cc1c(Cl)ccnc1N1CCN(C(=O)Cn2nc(C(=O)N3CCC(O)CC3)c3c2CCCC3)C2(CC2)C1 [Example 408, 1-(7-(4-chloro-3-methylpyridin-2-yl)-4,7-diazaspiro[2.5]octan-4-yl)-2-(3-(4-hydroxypiperidine-1-carbonyl)-4,5,6,7-tetrahydro-1H-indazol-1-yl)ethanone] | 4.93
3 | Cc1cccc(N2CCN(C(=O)Cn3nc(C(=O)N4CCC(O)CC4)c4c3CCCCC4)CC2)c1C [Example 409, 1-(4-(2,3-dimethylphenyl)piperazin-1-yl)-2-(3-(4-hydroxypiperidine-1-carbonyl)-5,6,7,8-tetrahydrocyclohepta[c]pyrazol-1(4H)-yl)ethan-1-one] | 2.63
4 | Cc1cccc(N2CCN(C(=O)Cn3nc(C(=O)N4C[C@@H](C)O[C@@H](C)C4)c4c3CCCCC4)CC2)c1C [Example 410, 2-(3-((2R,6S)-2,6-dimethylmorpholine-4-carbonyl)-5,6,7,8-tetrahydrocyclohepta[c]pyrazol-1(4H)-yl)-1-(4-(2,3-dimethylphenyl)piperazin-1-yl)ethanone] | 4.97
5 | Cc1cccc(N2CCN(C(=O)Cn3nc(C(=O)N4CCC(O)C(F)C4)c4c3CCCCC4)CC2)c1C (stereo not shown) [Example 411, 1-(4-(2,3-dimethylphenyl)piperazin-1-yl)-2-(3-(3-fluoro-4-hydroxypiperidine-1-carbonyl)-5,6,7,8-tetrahydrocyclohepta[c]pyrazol-1(4H)-yl)ethanone] | 8.74
6 | Cc1cccc(N2CCN(C(=O)Cn3nc(C(=O)N4CC[C@H](O)[C@H](F)C4)c4c3CCCCC4)CC2)c1C [Example 412, 1-(4-(2,3-dimethylphenyl)piperazin-1-yl)-2-(3-((3R,4S)-3-fluoro-4-hydroxypiperidine-1-carbonyl)-5,6,7,8-tetrahydrocyclohepta[c]pyrazol-1(4H)-yl)ethanone] | 5.43
7 | Cc1cccc(N2CCN(C(=O)Cn3nc(C(=O)N4CC[C@H](O)[C@@H](F)C4)c4c3CCCCC4)CC2)c1C [Example 413, 1-(4-(2,3-dimethylphenyl)piperazin-1-yl)-2-(3-((3S,4S)-3-fluoro-4-hydroxypiperidine-1-carbonyl)-5,6,7,8-tetrahydrocyclohepta[c]pyrazol-1(4H)-yl)ethanone] | 9.29
8 | Cc1cccc(N2CCN(C(=O)Cn3nc(C(=O)N4CC[C@H](O)[C@@H](F)C4)c4c3C(O)CC4)CC2)c1C (stereo partly shown) [Example 420, 1-(4-(2,3-dimethylphenyl)piperazin-1-yl)-2-(3-((3 S,4 S)-3-fluoro-4-hydroxypiperidine-1-carbonyl)-6-hydroxy-5,6-dihydrocyclopenta[c]pyrazol-1(4H)-yl)ethan-1-one] | 87.4
9 | Cc1cccc(N2CCN(C(=O)Cn3nc(C(=O)N4CC[C@H](O)[C@@H](F)C4)c4c3CC(F)(F)C4)CC2)c1C [Example 424, 2-(5,5-difluoro-3-((3 S,4S)-3-fluoro-4-hydroxypiperidine-1-carbonyl)-5,6-dihydrocyclopenta[c]pyrazol-1(4H)-yl)-1-(4-(2,3-dimethylphenyl)piperazin-1-yl)ethan-1-one] | 413
10 | O=C(Cn1nc(C(=O)N2CC[C@H](O)[C@H](F)C2)c2c1CCC2)N1CCN(C2CCCc3ccccc32)CC1 (stereo partly drawn) [Example 425, 2-(3-((3R,4S)-3-fluoro-4-hydroxypiperidine-1-carbonyl)-5,6-dihydrocyclopenta[c]pyrazol-1(4H)-yl)-1-(4-(1,2,3,4-tetrahydronaphthalen-1-yl)piperazin-1-yl)ethanone] | 565
11 | C[C@@H]1CN(C(=O)c2nn(CC(=O)N3CCN(C4CCCc5ccccc54)CC3)c3c2CCC3)C[C@H](C)O1 (stereo partly drawn) [Example 428, 2-(3-((2S,6R)-2,6-dimethylmorpholine-4-carbonyl)-5,6-dihydrocyclopenta[c]pyrazol-1(4H)-yl)-1-(4-(1,2,3,4-tetrahydronaphthalen-1-yl)piperazin-1-yl)ethanone] | 85.7
12 | O=C(Cn1nc(C(=O)N2CC[C@H](O)[C@@H](F)C2)c2c1CCC2)N1CCN(C2CCCc3ccccc32)CC1 (stereo partly drawn) [Example 433, 2-(3-((3S,4S)-3-fluoro-4-hydroxypiperidine-1-carbonyl)-5,6-dihydrocyclopenta[c]pyrazol-1(4H)-yl)-1-(4-(1,2,3,4-tetrahydronaphthalen-1-yl)piperazin-1-yl)ethanone] | 494
13 | O=C(Cn1nc(C(=O)N2CC[C@H](O)[C@@H](F)C2)c2c1CCC2)N1CCN(C2CCCc3ccccc32)CC1 (stereo partly drawn) [Example 434, 2-(3-((3S,4S)-3-fluoro-4-hydroxypiperidine-1-carbonyl)-5,6-dihydrocyclopenta[c]pyrazol-1(4H)-yl)-1-(4-(1,2,3,4-tetrahydronaphalen-1-yl)piperazin-1-yl)ethanone] | 8050
14 | O=C(Cn1nc(C(=O)N2CCC(O)CC2)c2c1CCC2)N1CCN(C2CCc3ccccc32)CC1 (stereo not shown) [Example 435, 1-(4-(2,3-dihydro-1H-inden-1-yl)piperazin-1-yl)-2-(3-(4-hydroxypiperidine-1-carbonyl)-5,6-dihydrocyclopenta[c]pyrazol-1(4H)-yl)ethanone] | 264
15 | O=C(Cn1nc(C(=O)N2CCC(O)(CF)CC2)c2c1CCC2)N1CCN(c2cccc3c(F)cccc23)CC1 [Example 444, 2-(3-(4-(fluoromethyl)-4-hydroxypiperidine-1-carbonyl)-5,6-dihydrocyclopenta[c]pyrazol-1(4H)-yl)-1-(4-(5-fluoronaphthalen-1-yl)piperazin-1-yl)ethan-1-one] | 298
16 | Cc1c(N2CCN(C(=O)Cn3nc(C(=O)N4CCC(O)(CF)CC4)c4c3CCC4)CC2)ccc(F)c1Cl [Example 445, 1-(4-(3-chloro-4-fluoro-2-methylphenyl)piperazin-1-yl)-2-(3-(4-(fluoromethyl)-4-hydroxypiperidine-1-carbonyl)-5,6-dihydrocyclopenta[c]pyrazol-1(4H)-yl)ethan-1-one] | 5.31
17 | C[C@@H]1CN(C(=O)c2nn(CC(=O)N3CCN(c4cccc5c4CC5)CC3)c3c2CCC3)C[C@H](C)O1 [Example 446, 1-(4-(bicyclo[4.2.0]octa-1(6),2,4-trien-2-yl)piperazin-1-yl)-2-(3-((2R,6S)-2,6-dimethylmorpholine-4-carbonyl)-5,6-dihydrocyclopenta[c]pyrazol-1(4H)-yl)ethanone] | 206
18 | Cc1cccc(N2CCN(C(=O)Cn3nc(C(=O)N4C[C@@H](C)O[C@@H](C)C4)c4c3CCC4)CC23CC3)c1C [Example 447, 2-(3-((2R,6S)-2,6-dimethylmorpholine-4-carbonyl)-5,6-dihydrocyclopenta[c]pyrazol-1(4H)-yl)-1-(4-(2,3-dimethylphenyl)-4,7-diazaspiro[2.5]octan-7-yl)ethanone] | 12.7
19 | Cc1cccc(N2CCN(C(=O)Cn3nc(C(=O)N4CCC(O)C(CO)C4)c4c3CCCC4)CC2)c1C (stereo not shown) [Example 452, 1-(4-(2,3-dimethylphenyl)piperazin-1-yl)-2-(3-(4-hydroxy-3-(hydroxymethyl)piperidine-1-carbonyl)-4,5,6,7-tetrahydro-1H-indazol-1-yl) ethanone] | 1.05
